Columns and labels:
CD8+ T cells = test: exogenous autologous normal donor restimulation assay, TNFα/IFNγ double positive CD8+ T cells by flow cytometry; format: cell-based, human; settings: for Fold change (CD8+) vs. DMSO: maximum CD8+ T-cell response (TNFα and IFNγ); for Fold change (CD8+) vs. DMSO / Frequency (TNFα + IFNγ + CD8 T cells): donor independent, peptide pool 10 μg/mL, healthy donors; for Frequency (TNFα + IFNγ + CD8 T cells): maximum CD8+ T-cell response; for Immunogenic (yes/no): positive if CD8+ and/or CD4+ double positive TNFα/IFNγ frequency >=3-fold over DMSO and at least 0.01%
Method: (§1) The immunogenicity of neoantigens was assessed using the exogenous autologous normal donor restimulation assay. […] The lyophilized peptides were solubilized in 100% DMSO.
(§2) CD1c+ Dendritic Cells (CD1c+DC) isolated from human healthy PBMCs were thawed using media (IMDM (Gibco) supplemented with glutamine, HEPES, 5% human serum (Sigma), and 1× Pen-Strep). DC cells were resuspended in media supplemented with IL-4 (Peprotech, 20 ng/mL) and GM-CSF (Gibco, 20 ng/mL), plated in 6 well microplates, and rested overnight at 37° C. and 5% CO2 incubator. The following day, DC cells were counted and plated in a 96 well round bottom microplate at a concentration of 30,000 viable cells per well. Lyophilized neoantigen peptide pools (15-mer peptides with 8-mer overlapping peptide sequences) were solubilized in 100% DMSO with a stock concentration of 20 mg/mL Neoantigen peptides pools were added to DCs for a final concentration of 10 μg/mL and rested for 2 hours at 37° C. and 5% CO2 incubator. CEF Peptide Pool “Plus” (Cellular Technologies, Ltd.) was utilized as a positive control (each viral peptide at a final concentration of 4 ug/ml) and DMSO at the same final concentration (0.05%) as the experimental peptides was utilized as a negative control. After 2 hours, DC cells were irradiated with 50 gray of ionizing radiation. Autologous CD3+ Pan-T cells isolated from human normal PBMCs were thawed using media. Following irradiation, autologous Pan-T cells were added to the irradiated DCs at 300,000 viable cells per well. Human IL-15 (Peprotech) was added to all wells at final concentration of 10 ng/ml. Plates were incubated at 37° C. and 5% CO2 incubator for a total of 12 days. Media was refreshed every 2-3 days with IL-15 (R&D System, 10 ng/mL final concentration) and IL-2 (R&D systems, 10 IU/mL final concentration).
(§3) On Day 11, cells were re-stimulated with identical experimental peptide pools or controls, at same concentration as peptide stimulation on Day 1. Protein Inhibitor Cocktail (eBioscience) was added to every well and plate was incubated overnight for 14-16 hours at 37° C. and 5% CO2 incubator. On Day 12, cells were stained for surface and intracellular flow cytometry analysis. The cells were washed with PBS and stained with Live/Dead Fixable Aqua Dead Cell stain (Thermo-Fisher). Following the live/dead stain, cells were blocked using Biotin-Fre Fc Receptor Blocker (Accurate Chemical & Scientific Corp). Extracellular cellular flow panel ([…] per well in 50 μL) consisted of CD3 PerCP-Cy5.5 (Biolegend), CD4 BV421 (Biolegend), and CD8 APC-Cy7 (Biolegend). After extracellular staining, cells were fixed and permeabilized using Foxp3/Transcription Factor Staining Buffer Set (eBioscience) and stained for intracellular proteins (1:50 dilution) using TNFα FITC (R&D Systems) and IFNγ BV785 (Biolegend). Cells were washed and resuspended in stain buffer, analyzed, and recorded in a BD Celesta flow cytometer.
(§4) Flow cytometry analysis was conducted on FlowJo v10.6 software. Cells were gated on live, singlet, CD3+, CD4+ and CD8+ T cells. The CD8+ and CD4+ T cells were analyzed for TNFα and IFNγ expression.
(§5) The immunogenicity of neoantigens was first investigated in 9-16 healthy donors.

CD4+ T cells = test: exogenous autologous normal donor restimulation assay, TNFα/IFNγ double positive CD4+ T cells by flow cytometry; format: cell-based, human; settings: donor independent, peptide pool 10 μg/mL, healthy donors; for Fold change (CD4+) vs. DMSO: maximum CD4+ T-cell response (TNFα and IFNγ); for Frequency (TNFα + IFNγ + CD4 T cells): maximum CD4+ T-cell response
Method: as §1, §2, §3, §4, §5

Sequence | Fold change (CD8+) vs. DMSO (CD8+ T cells) [fold] | Frequency (TNFα + IFNγ + CD8 T cells) (CD8+ T cells) [%] | Immunogenic (yes/no) (CD8+ T cells) | Fold change (CD4+) vs. DMSO (CD4+ T cells) [fold] | Frequency (TNFα + IFNγ + CD4 T cells) (CD4+ T cells) [%]
VIPGDLSEAHGYSFS [AS5, neoantigen, alternative splicing of PLAG1] | 2.41 | 0.017 | Yes | 17.14 | 0.18
VQKLKNARSLNLEDQI [AS83, neoantigen, alternative splicing of NUF2] | 10.83 | 0.14 | Yes | 71.14 | 0.061
YCKNDFFRSLPCHLL [AS16, neoantigen, alternative splicing of LHX1] | 2.88 | 0.062 | Yes | 5.43 | 0.011
QTDFAYDSGKRLGWGRVACDQVFS [AS3, neoantigen, alternative splicing of ETV4] | 133.13 | 0.43 | Yes | 7.31 | 0.1
QLNLSETQFAQYAEIV [FUS2, neoantigen, gene fusion VAX2->ATP6V1B1] | 593.75 | 2.28 | yes | 21.76 | 0.026
LRLRPNRRRASSAQTAPTSSLSLWSGASRRRRPAGGHMWCTAGRPSSRSGQNLTGTCTMKPLAWETFPTCWAWWGTSWATQSGSGGMPSQAATASRCCWWWTTRWFASMARSMCRTMSSPS [AS1] | 29.8 | 0.57 | Yes | 16.77 | 0.15
RASCGAQKACDVNQLTSS [FUS17, neoantigen, gene fusion C20orf204->TCEA2] | 13.53 | 0.23 | Yes | 6.91 | 0.045
LLFFVAGEVLRHEEFE [FUS15, neoantigen, gene fusion NXN->GLOD4] | 8.84 | 0.19 | yes | 16.21 | 0.08
PGHGAICREEV [AS62, neoantigen, alternative splicing of IMPG2] | 28.06 | 0.055 | Yes | 14.25 | 0.063
KHHLWALEAAWLSGRSPLSEPQLPLQPSGNSSSV [AS120, neoantigen, alternative splicing of STRA6] | 6.24 | 0.067 | Yes | 2.01 | 0.013
PSLSTRLTSKDPQPLQSHYWGLIGNDPFLRSKKRVN [AS4, neoantigen, alternative splicing of MUC16] | 7.55 | 0.068 | Yes | 11.53 | 0.093
STLNITLSFDSHHGHHPVSVI [FUS6, neoantigen, gene fusion PKHD1L1->EBAG9] | 4.47 | 0.096 | yes | 26.51 | 0.11
VEDEEKKEPDGAQRHLVDIGGSHQTSHAEKFLFLLCPPVV [AS90, neoantigen, alternative splicing of ACIN1] | 28.95 | 0.1 | Yes | 4.93 | 0.044
YGNDQWLQMRKWRHRE [FUS13, neoantigen, gene fusion MFGE8->HAPLN3] | 5.12 | 0.11 | yes | 3.35 | 0.12
FQETWLAEDAAAGALSPCTIPTPPQPPLLSLPTSSGTRQ [AS97, neoantigen, alternative splicing of ETV4] | 433.66 | 1.34 | Yes | 6.12 | 0.15
SHALNWNKIGRMFRASRV [AS65, neoantigen, alternative splicing of LCN10] | 82.3 | 2.2 | Yes | 73.69 | 0.64
RNTLKESSKLKSSFEYWFAGFFSSSSSFFFLSRKFCFVFCLCWVESLGGVS [AS157, neoantigen, alternative splicing of ZIC4] | 51.78 | 0.16 | Yes | 5.53 | 0.083
LRSLAGTYGRSPSPATRRKRSWSC [FUS25, neoantigen, gene fusion CLCF1->POLD4] | 2.79 | 0.048 | Yes | 16.49 | 0.059
GDPAKVVEIPRLL [AS31, neoantigen, alternative splicing of MECR] | 4.54 | 0.045 | Yes | 6.91 | 0.016
HFSRLCGPVSHLSAHLAHLR [AS119, neoantigen, alternative splicing of SMAD6] | 1.32 | 0.037 | Yes | 4.17 | 0.027
